{"source": "patent US5344941A", "about": "“Water soluble salts of thionaphthene-2-carboxylic acid” (priority 1992, dated 1994)", "key": {"[1]": {"conditions": "in vivo"}, "pK": {"assay": "pK", "assay_type": "physicochemical"}, "mice [2]": {"tested_on": "mice", "conditions": "cited from earlier work"}, "[3]": {"assay": "Solubility in water and organic solvents"}, "[4]": {"conditions": "in vivo", "from_the_text": "The utility of the salts, in a clinical treating sense, is equivalent to TNCA itself but they are far more useful, practically, for the reasons of amelioration of side effects and the high blood levels available via the oral route.", "remark": "listed apart in the source"}, "[5]": {"assay": "pH of a 5% aqueous solution of the salt", "assay_type": "physicochemical"}, "mice [6]": {"tested_on": "mice", "assay": "Acute toxicity (LD50) by oral route and by injection", "conditions": "oral vs intraperitoneal"}, "[7]": {"assay": "Acute toxicity (LD50) by oral route and by injection", "conditions": "mouse, in vivo"}, "[8]": {"tested_on": "rats made hypercalcemic by the injection of Leydig-cell carcinoma-tumor material", "assay": "Reduction of blood calcium levels of rats made hypercalcemic by injection of Leydig-cell carcinoma-tumor material", "assay_type": "in vivo", "procedure": "The following tables (Experiments I and II) illustrate the effectiveness of the present invention in reducing the blood calcium levels of rats made hypercalcemic by the injection of Leydig-cell carcinoma-tumor material. For details of the methodology employed in these studies, see: Johannesson et al., Endocrinology 117/4: 1508-1511 (1985). Normal calcium blood levels are in the range of 9-10 mg/dL.\nIn the table, n=number of rats evaluated at each dosage and in controls while S.D.=standard deviation. These higher initial values reflect Leydig cell-induced hypercalcemia. Data for final calcium levels show the decreases in calcium levels produced following administration of the lysine salt of TNCA."}}, "note": "Structures can show the parent of a compound that is named as a salt.", "data": [{"smiles": "O=C(O)c1cc2ccccc2s1", "note": "[TNCA, benzo(b)thiophene-2-carboxylic acid, reference compound]", "values": [{"measurement": "Gastric irritation", "setting": "[1]", "result": "causes gastric irritation, resulting in vomiting and bleeding"}, {"measurement": "pKa", "setting": "pK", "result": 3.4}, {"measurement": "LD50 by injection", "setting": "mice [2]; by injection, value repeated in text", "result": 1450, "unit": "mg/kg"}, {"measurement": "LD50", "setting": "mice [2]; mice, oral, TNCA in gum tragacanth", "result": 3600, "unit": "mg/kg"}, {"measurement": "Solubility in methanol (methyl alcohol)", "setting": "[3]", "result": "soluble in methanol"}, {"measurement": "Absorption from the gastrointestinal tract / following oral administration", "setting": "[4]", "result": "poorly absorbed from the gastrointestinal tracts"}]}, {"smiles": "O=C(O)c1cc2ccccc2s1", "note": "[Example 5, Piperidine salt of TNCA]", "values": [{"measurement": "Water solubility (in words)", "setting": "[3]; water", "result": "moderately water-soluble"}, {"measurement": "pH of a 5% aqueous solution", "setting": "[5]", "result": 6.4}]}, {"smiles": "O=C(O)c1cc2ccccc2s1", "note": "[Example 4, Arginine salt of TNCA]", "values": [{"measurement": "Solubility in ethanol (ethyl alcohol)", "setting": "[3]", "result": "soluble"}, {"measurement": "Solubility in methanol (methyl alcohol)", "setting": "[3]", "result": "soluble"}, {"measurement": "Water solubility (in words)", "setting": "[3]; water", "result": "water-soluble"}, {"measurement": "pH of a 5% aqueous solution", "setting": "[5]", "result": 5.8}]}, {"smiles": "O=C(O)c1cc2ccccc2s1", "note": "[Example 3, Ammonium salt of TNCA]", "values": [{"measurement": "Water solubility (in words)", "setting": "[3]; water", "result": "water-soluble"}, {"measurement": "pH of a 5% aqueous solution", "setting": "[5]", "result": 6.05}]}, {"smiles": "O=C(O)c1cc2ccccc2s1", "note": "[Example 2]", "values": [{"measurement": "Water solubility (in words)", "setting": "[3]; water", "result": "water-soluble"}, {"measurement": "pH of a 5% aqueous solution", "setting": "[5]", "result": 6.77}]}, {"smiles": "O=C(O)c1cc2ccccc2s1", "note": "[Example 7]", "values": [{"measurement": "Water solubility (in words)", "setting": "[3]; water", "result": "water-insoluble"}]}, {"smiles": "C[C@H](N)C(=O)O", "note": "[L-alanine]", "values": [{"measurement": "Water solubility (in words)", "setting": "[3]; water", "result": "No water-soluble reaction product is formed"}]}, {"smiles": "O=C(O)c1cc2ccccc2s1", "note": "[Example 1, Benzo(b)thiophene-2-carboxylic acid L-Lysine salt]", "values": [{"measurement": "Gastric irritation", "setting": "[1]", "result": "prevents the adverse effects associated with gastric irritation"}, {"measurement": "LD50 given orally compared to that obtained when administered intraperitoneally", "setting": "mice [6]", "result": "almost equivalent"}, {"measurement": "LD50", "setting": "[7]", "result": "~1300", "unit": "mg/kg"}, {"measurement": "LD50", "setting": "[7]; po", "result": "~1500", "unit": "mg/kg"}, {"measurement": "Solubility in ethanol (ethyl alcohol)", "setting": "[3]", "result": "insoluble"}, {"measurement": "Solubility in methanol (methyl alcohol)", "setting": "[3]", "result": "insoluble"}, {"measurement": "Solubility in toluene", "setting": "[3]; toluene", "result": "insoluble"}, {"measurement": "solubility", "setting": "[3]; water", "result": 700, "unit": "mg/mL"}, {"measurement": "pH of a 5% aqueous solution", "setting": "[5]", "result": 5.75}, {"measurement": "Absorption from the gastrointestinal tract / following oral administration", "setting": "[4]", "result": "readily absorbed following oral administration"}, {"measurement": "Initial calcium levels (mean)", "setting": "[8]; Experiment 1, 195 mg/kg group, N=8, initial (before treatment)", "result": 12.28, "unit": "mg/dL"}, {"measurement": "Final calcium levels (mean)", "setting": "[8]; Experiment 1, 195 mg/kg, N=8, control 17.38", "result": 14.85, "unit": "mg/dL"}, {"measurement": "Initial calcium levels (mean)", "setting": "[8]; Experiment 1, 292 mg/kg group, N=9, initial (before treatment)", "result": 13.31, "unit": "mg/dL"}, {"measurement": "Final calcium levels (mean)", "setting": "[8]; Experiment 1, 292 mg/kg, N=9, control 17.38", "result": 11.54, "unit": "mg/dL"}, {"measurement": "Initial calcium (mean)", "setting": "[8]; Experiment 2, 195 mg/kg group, N=6, initial (before treatment)", "result": 14.07, "unit": "mg/dL"}, {"measurement": "Final calcium levels (mean)", "setting": "[8]; Experiment 2, 195 mg/kg, N=6, control 18.03", "result": 13.27, "unit": "mg/dL"}, {"measurement": "Initial calcium (mean)", "setting": "[8]; Experiment 2, 292 mg/kg group, N=6, initial (before treatment)", "result": 14.68, "unit": "mg/dL"}, {"measurement": "Final calcium levels (mean)", "setting": "[8]; Experiment 2, 292 mg/kg, N=6, control 18.03", "result": 11.00, "unit": "mg/dL"}, {"measurement": "Initial calcium (mean)", "setting": "[8]; Experiment 2, 389 mg/kg group, N=10, initial (before treatment)", "result": 13.80, "unit": "mg/dL"}, {"measurement": "Final calcium levels (mean)", "setting": "[8]; Experiment 2, 389 mg/kg, N=8, control 18.03", "result": 10.16, "unit": "mg/dL"}, {"measurement": "Decrease in calcium levels, dose relation", "setting": "[8]; Experiments 1 and 2", "result": "clearly does-related in both experiments"}, {"measurement": "Type of calcium-lowering activity", "setting": "[8]; Experiments 1 and 2", "result": "anti-hypercalcemic, rather than hypocalcemic"}, {"measurement": "Serum calcium levels following treatment", "setting": "[8]; relative to pretreatment / normal levels", "result": "returned to pretreatment levels, but not to below normal values"}]}, {"smiles": "O=C(O)c1cc2ccccc2s1", "note": "[potassium, potassium salt of TNCA]", "values": [{"measurement": "Water solubility (in words)", "setting": "[3]; water", "result": "mainly insoluble in water"}]}, {"smiles": "O=C(O)c1cc2ccccc2s1", "note": "[Example 6, Sodium salt of TNCA]", "values": [{"measurement": "Water solubility (in words)", "setting": "[3]; water", "result": "water-insoluble"}, {"measurement": "Water solubility (in words)", "setting": "[3]; water, listed as sodium", "result": "mainly insoluble in water"}]}]}
